Laboratory results as given in US5696263A, “Antiviral acyclic phosphonomethoxyalkylsubstituted alkenyl and alkynyl purine and pyrimidine derivatives” (Institute of Organic Chemistry and Biochemistry of the …, priority 1994, dated 1997).
Where two headings read alike, the source gives them in different places.

Columns and labels:
[1] = system: human immunodeficiency virus (HIV RF strain) in CEM-SS cells; assay: XTT assay, anti-HIV RF activity in infected CEM-SS cells, six days post infection; format: cell-based; conditions: for SI (Selectivity Index: Ratio of TD50 to ED50): HIV RF; for SI (Selectivity Index: Ratio of TD50 to ED50) / EC50: CEM-SS cells; for EC50: Human immunodeficiency virus 1, CEM-SS, 144 h, HIV RF strain, XTT assay, six days post infection, read-out: ED50 (the source's name); for anti-HIV potency and selectivity as compared to the other compounds: data in Table 1; for cell protection against HIV: over a broad concentration range
Experimental: (§1) Compounds were evaluated for activity against human immunodeficiency virus (HIV RF strain obtained from Luc Montagnier, Institut Pasteur, Paris, France) in CEM-SS cells (P. L. Nara, et al., in AIDS Res. Human. Retroviruses, 1987, 3, 283-302) using the XTT assay described by O. S. Weislow, et al., in J. Natl. Cancer Instit., 1989, 81, 577-586. CEM-SS cells were obtained from Owen Weislow at the National Cancer Institute. Cells were exposed to HIV and cultured in microtiter plates in the presence of test compounds at concentrations of 0.32, 1, 3.16, 10, 31.6, 100, 316 and 1000 um. On day six post-infection, the antiviral effect was measured using the XTT assay in which an optical density (OD) reading is obtained at each drug concentration. The optical density reading is proportional to the number of viable cells. The relative optical density values were derived by dividing the sample observed optical density by the value obtained for the control. Assays run in infected cells show the antiviral effect of the test compounds, where an increase in the number of viable cells (higher OD reading) reflects the protective, antiviral activity of the compound. Assays run in uninfected cells provide a measure of cellular toxicity.
(§2) The antiviral effect is also expressed (see Table 1) as the concentration of compound which increases the number of viable cells in infected cultures to 50%, to that of the untreated, uninfected control cultures (ED50). The cellular toxicity is expressed as the concentration of compound which reduces the number of viable cells to 50%, to that of the untreated control (TD50). The selectivity index (SI) is the ratio of TD50 to ED50.
(§3) The anti-HIV activity and cellular toxicity of the test compounds are plotted in FIGS. 1-7 as a function of relative optical density versus increasing log concentrations of the test compounds (XTT assay). FIGS. 1-7 visually show the results of the relative anti-HIV activity of the test compounds on infected cells (--.circle-solid.--) and the cellular toxicity of the same test compound on uninfected cells (--.rect-solid.--).
Another estimate of the effectiveness of a compound for use against HIV in the prevention and/or treatment of AIDS is a selectivity index (an in vitro "therapeutic index"), the ratio of the toxic dose 50 to the effective dose 50. The selectivity index (SI) for (RS), (R)- and (S)-2'-vinyl-PMEG and (RS), (R), (S), -2'-azidomethyl-PMEG of the instant invention and for the comparison compound PMEG are shown in Table 1.
Anti-HIV RF Activity in CEM-Cells Evaluated by XTT Assay
Six Days Post Infection
(§4) ^a Effective Dose 50: In infected cells, concentration of compound
(§5) which results in an increase in the number of viable cells to 50% to that
^c Selectivity Index: Ratio of TD50 to ED50.

[2] = XTT assay, cellular toxicity in uninfected CEM-SS cells; format: cell-based; conditions: human, cem-ss cells
Experimental: as §1, §2, §3
(§6) ^b Toxic Dose 50: In uninfected cells, concentration of compound whic
(§7) results in a 50% decrease of viable cells.

[3] = system: human immunodeficiency virus LA BRU strain; assay: XTT assay, anti-HIV activity with LAV BRU strain; format: cell-based; conditions: HIV LAV BRU strain (footnote e), read-out: ED50 (the source's name)
Experimental: as §1, §2, §4, §5
^e The compounds were evaluated using human immunodeficiency virus LA
BRU strain obtained from Luc Montagnier, Institut Pasteur, Paris, France.

[4] = system: CEM-SS cells; assay: XTT assay, cellular toxicity in uninfected CEM-SS cells; format: cell-based
Experimental: as §1, §2, §3, §6, §7

[5] = cell growth inhibition assay in CEM-SS cells; format: cell-based; conditions: human, cem-ss cells; 50 percent decrease in cell count vs control at day three (72 hours)
Experimental: (§8) The cytotoxicity of PMEG, (R)2'-vinyl-PMEG, (S)-2'-vinyl-PMEG and (R)-2'-azidomethyl-PMEG was also determined by the cell growth inhibition assay in CEM-SS cells.
(§9) *CC50 is the concentration of drug that causes a 50 percent decrease in
(§10) cell count as compared to the control at day three (72 hours).
(§11) 1. Choose proper range of the concentrations of the drug to be evaluated.
(§12) 2. Prepare the stock solutions of drugs in RPMI 1640 medium at 10× of the highest concentration needed in cell culture
(§13) 3. Make serial dilution of the 10× stock solutions with RPMI 1640 as needed, usually four different concentrations are used for each drug.
(§14) 4. Prepare CEM cell suspension at @5×10^4 cells/ml concentration
(§15) 5. To each 18 ml CEM cell suspension add 2 ml of properly diluted drug solution (from step 2 and 3) separately and mix well.
(§16) 6. For cell control, 2 ml of RPMI 1640 is added in place of the drug solutions.
(§17) 7. Two ml of the solutions from step 5 and 6 are dispensed in to the wells of 24-well plate as shown in the following diagram [drawing 14] 8. At time zero, cells in 4 wells from the control (no drug added) are counted
(§18) 9. At 24, 48, 72 and 96 hr post drug addition, both drug treated and control cells are counted
(§19) 10. All assay are done in duplicate, two 24-well plates are set up for each drug
(§20) 11. Cell counts obtained from drug treated cultures are compared to those from control cultures.
(§21) 12. The concentration of drug that causes a 50 percent of decrease of cell number as compared to the control at day three (72 hr) is assigned as the CC50 value of the drug.

[6] = system: Moloney sarcoma virus; conditions: experimental animals; cited from earlier work
[7] = system: murine leukemia virus; conditions: experimental animals; cited from earlier work
[8] = system: simian immunodeficiency virus (SIV); conditions: experimental animals; cited from earlier work
[9] = system: HIV; conditions: in tissue cultures; cited from earlier work
[10] = system: CEM-SS cells; assay: cell growth inhibition assay in CEM-SS cells; format: cell-based; conditions: values of Table 2
Experimental: as §8, §9, §10, §11, §12, §13, §14, §15, §16, §17, §18, §19, §20, §21

[11] = system: CEM-SS cells; assay: XTT assay, cellular toxicity in uninfected CEM-SS cells; format: cell-based; conditions: compounds evaluated with HIV LAV BRU strain (footnote e), 8640 min, read-out: TD50 (the source's name)
[12] = system: human immunodeficiency virus HTLVIIIB strain and MT2 cells; assay: anti-HIV activity, HTLVIIIB strain in MT2 cells (Southern Research Institute); format: cell-based; conditions: Southern Research Institute (footnote g), read-out: ED50 (the source's name)
Experimental: as §4, §5
(§22) ^g The compound was evaluated by Southern Research Institute using
(§23) human immunodeficiency virus HTLVIIIB strain and MT2 cells (S. Harada, et

[13] = system: MT2 cells; assay: cellular toxicity in uninfected MT2 cells (Southern Research Institute); format: cell-based; conditions: Southern Research Institute (footnote g), read-out: TD50 (the source's name)
Experimental: as §6, §7, §22, §23

[N-]=[N+]=NC[C@H](Cn1cnc2c(=O)[nH]c(N)nc21)OCP(=O)(O)O [(S)-2'-azidomethyl-PMEG, (S)-9-[3-azido-2-(phosphonomethoxy)propyl]guanine]
SI (Selectivity Index: Ratio of TD50 to ED50) [1]: > 20
EC50 [1]: 51 µM
CC50 at 144 h [2]: > 1000 µM

[N-]=[N+]=NCC[C@@H](Cn1cnc2c(O)nc(N)nc21)OCP(=O)(O)O [(S)-2'-azidoethyl-PMEG, (S)-9-[4-azido-2-(phosphonomethoxy)butyl]guanine]
CC50 at 144 h [2]: > 500 µM
EC50 ([3]; Human immunodeficiency virus 1, CEM-SS, 144 h): > 500 µM

Nc1nc2c(ncn2CCOCP(=O)(O)O)c(=O)[nH]1 [PMEG, 9-[2-(phosphonomethoxy)ethyl]guanine, reference compound]
anti-HIV effect in CEM-SS cells ([1]; FIG. 7): some anti-HIV effect
SI (Selectivity Index: Ratio of TD50 to ED50) [1]: 30
EC50 [1]: 0.2 µM
CC50 at 144 h [2]: 15 µM
cellular toxicity [4]: cellular toxicity of PMEG prevents protection from the virus
CC50 at 72 h [5]: 2.4 µM

Nc1ncnc2c1ncn2CCOCP(=O)(O)O [PMEA]
effect on Moloney sarcoma virus [6]: proven its effect
effect on murine leukemia virus [7]: proven its effect
effect on simian immunodeficiency virus (SIV) [8]: proven its effect
effect on HIV [9]: proven its effect

[N-]=[N+]=NC[C@@H](Cn1cnc2c(O)nc(N)nc21)OCP(=O)(O)O [(R)-2'-azidomethyl-PMEG, (R)-9-[3-azido-2-(phosphonomethoxy)propyl]guanine]
SI (Selectivity Index: Ratio of TD50 to ED50) [1]: > 200
EC50 [1]: 5 µM
anti-HIV potency and selectivity as compared to the other compounds [1]: potent and selective anti-HIV agents
cell protection against HIV [1]: cell protection against HIV over a broad concentration
CC50 at 144 h [2]: > 1000 µM
observable cytotoxicity [4]: no observable cytotoxicity
CC50 at 72 h [5]: 1400 µM
toxicity in CEM-SS cells when compared to PMEG [10]: relatively non-toxic

[N-]=[N+]=NCC[C@@H](Cn1ccc(N)nc1=O)OCP(=O)(O)O [(S)-2'-azidoethyl-PMEC, (S)-9-[4-azido-2-(phosphonomethoxy)butyl]cytosine]
EC50 ([3]; 8640 min): > 500 µM
CC50 [11]: > 500 µM

C=C[C@@H](Cn1cnc2c(O)nc(N)nc21)OCP(=O)(O)O [(S)-2'-vinyl-PMEG, (S)-9-[2-(phosphonomethoxy)-3-butenyl]guanine]
protection from HIV in CEM-SS cells ([1]; at 100 μM, FIG. 2): complete protection
CC50 at 72 h [5]: 1600 µM
toxicity in CEM-SS cells when compared to PMEG [10]: relatively non-toxic

C=C[C@H](Cn1cnc2c(O)nc(N)nc21)OCP(=O)(O)O [(R)-2'-vinyl-PMEG, (R)-9-[2-(phosphonomethoxy)-3-butenyl]guanine]
protection from the human immunodeficiency virus in CEM-SS cells ([1]; concentration range of 5 to 100 μM, FIG. 1): complete protection
anti-HIV potency and selectivity as compared to the other compounds [1]: potent and selective anti-HIV agents
cell protection against HIV [1]: cell protection against HIV over a broad concentration
CC50 at 144 h [2]: > 1000 µM
observable cytotoxicity [4]: no observable cytotoxicity
CC50 at 72 h [5]: 1600 µM
toxicity in CEM-SS cells when compared to PMEG [10]: relatively non-toxic

[N-]=[N+]=NCC(Cn1cnc2c(=O)[nH]c(N)nc21)OCP(=O)(O)O (racemic) [(R,S)-2'-azidomethyl-PMEG, (RS)-9-[3-azido-2-(phosphonomethoxy)propyl]guanine]
SI (Selectivity Index: Ratio of TD50 to ED50) [1]: > 125
EC50 [1]: 8 µM
CC50 at 144 h [2]: > 1000 µM

[N-]=[N+]=NC[C@H](Cn1ccc(N)nc1=O)OCP(=O)(O)O [(S)-2'-azidomethyl-PMEC, (S)-9-[3-azido-2-(phosphonomethoxy)propyl]cytosine]
EC50 ([3]; 8640 min): > 500 µM
CC50 [11]: > 500 µM

C=CC(Cn1cnc2c(=O)[nH]c(N)nc21)OCP(=O)(O)O (racemic) [(R,S)-2'vinyl-PMEG, (RS)-9-[2-(phosphonomethoxy)-3-butenyl]guanine]
SI (Selectivity Index: Ratio of TD50 to ED50) [1]: > 51
EC50 [1]: 19.6 µM
CC50 at 144 h [2]: > 1000 µM

Cc1cn(C[C@@H](CN=[N+]=[N-])OCP(=O)(O)O)c(=O)[nH]c1=O [(S)-2'-azidomethyl-PMET, (S)-9-[3-azido-2-(phosphonomethoxy)propyl]thymine]
EC50 [12]: > 500 µM
CC50 [13]: > 500 µM

C=C[C@@H](Cn1ccc(N)nc1=O)OCP(=O)(O)O [(S)-2'-vinyl-PMEC, (S)-9-[2-(phosphonomethoxy)-3-butenyl]cytosine]
EC50 ([3]; 8640 min): > 500 µM
CC50 [11]: > 500 µM
